Test results taken from patent US7638503B2, “Small molecule stimulators of neuronal growth” (California Institute of Technology, priority 2004, dated 2009).

Columns and labels:
[1] = tested on: primary hippocampal neurons; experiment: Hippocampal neuronal growth: neurite outgrowth of cultured primary hippocampal neurons, anti-tau immunostaining, confocal microscopy; assay type: cell-based, Sprague-Dawley rats; settings: 48 h
Method: In certain embodiments, the activity of the compounds provided herein to modulate neuronal growth, can be tested using cultured primary hippocampal neurons. Primary hippocampal neurons are cultured on poly-DL-ornithine-coated coverslips with or without each compound. After 48 h, the neurons are fixed, immunostained with anti-tau antibodies, and examined by confocal fluorescence microscopy. The effect of sulfated tetrasaccharide CS-E on neuronal morphology and growth is illustrated in FIGS. 1A-B. The number of neurites emanating from the cell body was enhanced, and the growth of the major extension was stimulated by 39.3±3.6% relative to the poly-DL-omithine control.
Hippocampal Neuronal Cultures. Hippocampal neuronal cultures were prepared using a modified version of the Goslin and Banker protocol (Goslin, K.; Banker, G. In Culturing Nerve Cells; Banker, G.; Goslin, K.; Eds.; MIT Press: Cambridge, Mass., 1991; pp 251-281). Embryos at the E18 stage were obtained from timed-pregnant Sprague-Dawley rats, and the hippocampus from each embryo was dissected. All the hippocampi from one preparation were transferred to a 15 mL conical tube containing 4.5 mL of ice-cold Calcium and Magnesium Free-Hank's Balanced Salt Solution (CMF-HBSS) (GIBCO). Trypsin (2.5%, no EDTA; GIBCO) was added to 5 mL, and the tissue was digested for 15 min at 37° C. The trypsin solution was removed and the tissue rinsed with 5 mL of CMF-HBSS three times. The tissue was then dissociated in 1 mL of CMF-HBSS by passing through a P1000 pipet tip twenty times. The cells were counted with a hemacytometer and plated on glass coverslips at 80 cells/mm2 and cultivated in minimal Eagle's Medium (MEM) (GIBCO) supplemented with the N2 mixture (GIBCO) and 0.1 mM pyruvate. The cultures were maintained in 5% CO2 at 37° C. Glass coverslips were coated as described by Clement et. al. (Clement, A.M.; Nadanaka, S.; Masayama, K.; Mandl, C.; Sugahara, K.; Faissner, A. J. Biol. Chem. 1998, 273, 28444-28453) Briefly, coverslips were precoated with 0.015 mg/mL poly-DL-ornithine (SIGMA) for 1 h at 37° C./5% CO2, washed three times with double distilled H2O, and coated with 0.5 mg/mL of compounds 1-3 in PBS overnight at 37° C./5% CO2. The coverslips were then washed three times with PBS and flooded with MEM+N2 media.
Immunocytochemistry of Hippocampal Neuronal Cultures. After 48 h in culture, hippocampal neurons on coverslips were used for immunostaining. […]
Morphometric Analysis. For quantitative analysis, 50 cells were analyzed per coverslip. Only cells with neurites longer than one cell body diameter were counted. The length of the longest neurite from stained cells was measured using N1H Image 1.52 software. […]

dopaminergic neurons = experiment: Outgrowth of cultured dopaminergic neurons; assay type: cell-based
From the text: (§1) Effect of disaccharide CS-E, tetrasaccharides CS-E, and unsulfated tetrasaccharide on the growth of dopaminergic neurons as well as dorsal root ganglion (DRG) neurons from the spinal cord is illustrated in FIGS. 2A-B and 4A-B, respectively. In certain embodiments, the CS-E tetrasaccharide promoted the outgrowth of cultured dopaminergic and DRG neurons by 30-40% relative to the untreated controls. FIGS. 5 and 7 illustrate binding of tetrasaccharides CS-E, CS-C and disaccharide CS-E to tumor necrosis factor-α and midkine, respectively.

[2] = tested on: dorsal root ganglion (DRG) neurons; experiment: Outgrowth of cultured dorsal root ganglion (DRG) neurons from the spinal cord; assay type: cell-based
From the text: as §1

[3] = primary hippocampal neurons on poly-DL-ornithine-coated coverslips with compound

| Compound | growth of the major extension stimulated relative to the poly-DL-ornithine control ([1]; primary hippocampal neurons on poly-DL-ornithine-coated coverslips with compound (0.5 mg/mL coating)) | number of neurites emanating from the cell body [1, 3] | outgrowth promoted relative to the untreated controls (dopaminergic neurons) | outgrowth promoted relative to the untreated controls [2] | effect on neuronal outgrowth [1, 3] |
| --- | --- | --- | --- | --- | --- |
| C=CCO[C@@H]1O[C@H](COS(=O)(=O)[O-])[C@H](OS(=O)(=O)[O-])[C@H](O[C@@H]2O[C@H](C(=O)[O-])[C@@H](O[C@@H]3O[C@H](COS(=O)(=O)[O-])[C@H](OS(=O)(=O)[O-])[C@H](O[C@@H]4O[C@H](C(=O)[O-])[C@@H](O)[C@H](O)[C@H]4O)[C@H]3NC(C)=O)[C@H](O)[C@H]2O)[C@H]1NC(C)=O.[Na+].[Na+].[Na+].[Na+].[Na+].[Na+] [sulfated tetrasaccharide CS-E, Allyl (sodium β-D-glucopyranosyluronate)-(1→3)-(4,6-di-O-sodiumsulfonato-2-deoxy-2-acetamido-β-D-galactopyranosyl)-(1→4)-(sodium β-D-glucopyranosyluronate)-(1→3)-4,6-di-O-sodium sulfonato-2-deoxy-2-acetamido-β-D-galactopyranoside] | 39.3±3.6% | enhanced | 30-40% | 30-40% |  |
| C=CCO[C@@H]1O[C@H](CO)[C@H](O)[C@H](O[C@@H]2O[C@H](C(=O)[O-])[C@@H](O[C@@H]3O[C@H](CO)[C@H](O)[C@H](O[C@@H]4O[C@H](C(=O)[O-])[C@@H](O)[C@H](O)[C@H]4O)[C@H]3NC(C)=O)[C@H](O)[C@H]2O)[C@H]1NC(C)=O.[Na+].[Na+] [unsulfated tetrasaccharide, Allyl (sodium β-D-glucopyranosyluronate)-(1→3)-(2-deoxy-2-acetamido-β-D-galactopyranosyl)-(1→4)-(sodium β-D-glucopyranosyluronate)-(1→3)-2-deoxy-2-acetamido-β-D-galactopyranoside] |  |  |  |  | no significant effect |
| Allyl (sodium β-D-glucopyranosyluronate)-(1→3)-4,6-di-O-sodium sulfonato-2-deoxy-2-acetamido-β-D-galactopyranoside [sulfated disaccharide] |  |  |  |  | no significant effect |
